According to patent US20130216552A1, “CRTH2 MODULATORS” (Ironwood Pharmaceuticals, Inc., priority 2010, published 2013):

Columns and labels:
CRTH2 [1] = target: T1, CRTH2 (Homo sapiens, UniProt Q9Y5Y4); experiment: Human Whole Blood CD11b Antagonist Assay; assay type: cell-based; details: CD11b expression in eosinophils, agonist 15R-Methyl-PGD2 (10 nM)
T1 construct: polymorphonuclear cells (0.5 ml; 10^6/ml cells) in PBS containing 0.9 mM CaCl2 and 0.5 mM MgCl2; endogenous in cells; host or cells: polymorphonuclear cells (eosinophils gated by flow cytometry)
T1 sequence (Q9Y5Y4 1-395): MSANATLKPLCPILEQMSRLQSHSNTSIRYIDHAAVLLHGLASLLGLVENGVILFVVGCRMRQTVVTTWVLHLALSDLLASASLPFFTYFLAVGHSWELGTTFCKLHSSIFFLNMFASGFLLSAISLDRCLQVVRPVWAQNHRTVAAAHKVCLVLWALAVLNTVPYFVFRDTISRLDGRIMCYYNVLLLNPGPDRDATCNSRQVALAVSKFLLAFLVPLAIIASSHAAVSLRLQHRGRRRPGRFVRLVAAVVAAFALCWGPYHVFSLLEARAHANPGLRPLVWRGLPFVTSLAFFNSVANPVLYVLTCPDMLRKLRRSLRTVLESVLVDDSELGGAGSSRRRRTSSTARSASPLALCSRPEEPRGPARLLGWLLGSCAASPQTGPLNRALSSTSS
Protocol: Human Whole Blood CD11b Antagonist Assay (Modified from Nicholson, et al. Pulmonary Pharmacology and Therapeutics: 20 (2007); 52-59)
The potential CRTH2 antagonist activity of certain compounds was tested in human whole blood using an assay that tests the ability of the compounds to block the CD11b expression in eosinophils by 15-R-methyl-PGD2. A CRTH2 antagonist should block CD11b expression by subsequently added 15-Methyl-PGD2. Human whole blood ([…]) was incubated at 37° C. for 10 minutes in the presence of various concentrations of test compounds before being challenged with the agonist 15R-Methyl-PGD2 (10 nM). Reactions were terminated by the addition of ice-cold PBS+0.5% BSA+2 mM EDTA (1 mL) and centrifugation (300×g for 5 minutes at 4° C.) Cells were then incubated at 4° C. for 10 min in the presence of human IgG. Cells were then incubated for 30-45 min with a mixture of PE-Cy5-labeled mouse anti-human CD16 (10 ul; BD Biosciences) and FITC-labeled mouse anti-human CD11b (10 μL; Beckman Coulter.) After rinsing (1 mL ice-cold PBS+0.5% BSA+2 mM EDTA), red blood cells were lysed by the addition of 1 mL ice-cold H2O to the cell pellet for 30 sec-1 min immediately followed by the addition of 3.5% NaCl (300 μL.) Cells were then rinsed (2×−1 ml ice cold PBS+0.5% BSA+2 m MEDTA) and fixed in PBS containing 1% formaldehyde. The distribution of fluorescence intensities was measured by flow cytometry. Eosinophils were gated out on the basis of their granularity (high side scatter) and absence of CD-16. CD11b was then measured on this eosinophil population on the basis of fluorescence due to FITC.

CRTH2 [2] = target: T1, CRTH2; experiment: DPBS CD11b Antagonist Assay; assay type: cell-based; details: polymorphonuclear cells in PBS with CaCl2/MgCl2; CD11b expression in eosinophils; agonist 15R-Methyl-PGD2 (10 nM)
Protocol: DPBS CD11b Antagonist Assay
The potential CRTH2 antagonist activity of certain compounds was tested using a CD11b expression assay using essentially the method described by Monneret et al. (J Pharmacol Exp Ther 304:349-55, 2003). Briefly, polymorphonuclear cells (0.5 ml; 10^6/ml cells) in PBS containing 0.9 mM CaCl2 and 0.5 mM MgCl2) were preincubated with various concentrations of test compounds at room temperature for 10 minutes before they were challenged with the agonist 15R-Methyl-PGD2 (10 nM). The incubations were terminated by the addition of ice-cold FACSFlow (BD Biosciences; Cat#342003) and centrifugation (400 g for 5 minutes at 4° C.). The cells were then incubated for 30 minutes at 4° C. with a mixture of PE-labeled mouse anti-human VLA-4 (5 μl; BD Biosciences) and FITC-labeled mouse anti-human CD11b (10 μl; Beckman Coulter). The cells were then incubated with Optilyse C (0.25 ml; Beckman Coulter) for 15 minutes, centrifuged, and then fixed in PBS (0.4 ml; calcium and magnesium free) containing 1% formaldehyde. The distribution of fluorescence intensities among 60,000 cells was measured by flow cytometry. Eosinophils were gated out on the basis of their granularity (high side scatter) and labeling with VLA-4 (PE fluorescence). CD11b was then measured in the eosinophil region on the basis of fluorescence due to FITC. All data were corrected for the value obtained for the corresponding isotope control antibody.

Row | IC50 (CRTH2 [1]) | IC50 (CRTH2 [2]) | Compound
1 | 5 to 20 nM | < 1 nM | Cc1c(Cc2ccccc2S(=O)(=O)c2ccccc2)c2ccsc2n1CC(=O)O [Compound I-3, 2-(5-Methyl-4-(2-(phenylsulfonyl)benzyl)-6H-thieno[2,3-b]pyrrol-6-yl)acetic acid]
2 | 20 to 100 nM | 1 to 5 nM | Cc1c(Cc2ccccc2S(=O)(=O)N2CCCC2)c2sccc2n1CC(=O)O [Compound I-4, 2-(5-Methyl-6-(2-(pyrrolidin-1-ylsulfonyl)benzyl)-4H-thieno[3,2-b]pyrrol-4-yl)acetic acid]
3 | 20 to 100 nM | < 1 nM | Cc1c(Cc2ccccc2S(=O)(=O)N2CCCC2)c2ccsc2n1CC(=O)O [Compound I-1, 2-(5-Methyl-4-(2-(pyrrolidin-1-ylsulfonyl)benzyl)-6H-thieno[2,3-b]pyrrol-6-yl)acetic acid]
4 | 3000 to 5000 nM | 3000 to 5000 nM | Cc1c(Cc2ccccc2S(=O)(=O)N2CCOCC2)c2scnc2n1CC(=O)O [Compound I-5, 2-(5-Methyl-6-(2-(morpholinosulfonyl)benzyl)-4H-pyrrolo[2,3-d]thiazol-4-yl)acetic acid]
5 | 5 to 20 nM | < 1 nM | Cc1c(Cc2ccccc2S(=O)(=O)N2CCOCC2)c2ccsc2n1CC(=O)O [Compound I-6, 2-(5-Methyl-4-(2-(morpholinosulfonyl)benzyl)-6H-thieno[2,3-b]pyrrol-6-yl)acetic acid]
6 |  | 100 to 500 nM | Cc1c(Cc2ccccc2S(=O)(=O)N2CCCC2)c2scnc2n1CC(=O)O [Compound I-2, 2-(5-Methyl-6-(2-(pyrrolidin-1-ylsulfonyl)benzyl)-4H-pyrrolo[2,3-d]thiazol-4-yl)acetic acid]
